Source: patent US20110280881A1, “NOVEL ANTI-HSP90 MONOCLONAL ANTIBODY” (RIKEN, priority 2010, published 2011)

Legend:
OT-I CD8+ T cells [1] = test: In vitro cross-presentation assay with BMDC of normal and FcRγ KO mouse; assay type: cell-based; conditions: BMDC pulsed 3 hours, co-culture with OT-I CD8+ T cells, IFNγ ELISA
Method: (1) A bone marrow-derived dendritic cells (BMDCs) were established from a normal mouse and an FcRγ KO mouse (supplied by Professor Akira Shibuya, Immunology, Life System Medical Sciences, Majors of Medical Sciences, Graduate School of Comprehensive Human Sciences, University of Tsukuba) as described below. Bone marrow was recovered from a mouse femur and tibia, and 1×10^6 cells each were cultured in a 24-well plate using 2 ml/well of a complete RPMI containing 20 ng/ml recombinant mouse GM-CSF (R&D). Half of the medium was exchanged for a fresh medium on day 3 of cultivation, and the cells obtained on day 5 of cultivation were used as the BMDC. (2) BMDCs at Day 5 induced in a GM-CSF-dependent manner was stained with biotin-6H8 (2.5 μg/ml) and streptavidin-APC (0.2 μg/ml), and its fluorescence was determined using FACS Canto (BD).
(1) A pellet of 1×10^6 BMDC cells at Day 5 induced in a GM-CSF-dependent manner were prepared in a 15-ml tube. After adding 400 μl of an antigen (6H8-OVA, OVA, or OVA257-264) thereto, the tube was incubated with 5% CO2 at 37° C. for 3 hours. The cells were fixed in 0.5% para-formaldehyde, after which the cells were washed with 0.1 M glycine and then with RPMI; thereafter, the density was adjusted to 1×10^5 cells/ml. (2) Concurrently, OT-I CD8^+ T cells were purified and the density was adjusted to 1×10^5 cells/ml. […]

[2] = system: DC2.4 cells and mouse GM-CSF-dependent BMDC; test: Influence of cytokines on expression of cell surface HSP90 (FACS with 6H8); assay type: cell-based; conditions: for expression of cell surface HSP90 after IFN treatment: DC2.4 and mouse GM-CSF-dependent BMDC, 24 hours, IFNα 500 U/ml, IFNβ 500 U/ml, IFNγ 50 ng/ml; for MFI of cell surface HSP90 after cytokine treatment versus negative control: BMDC, cytokines 100 ng/ml or 10 ng/ml
Method: In view of the possibility that cytokines are variation factors for the expression of cell surface HSP90, the influences of various cytokines on the expression of cell surface HSP90 were examined as described below.
The solid bars indicate the MFI for BMDC incubated in the presence of high concentrations of IFNs (as in FIG. 5B) or other cytokines (100 ng/ml); the grey bars indicate the MFI for BMDC incubated in the presence of low concentrations of IFNs (as in FIG. 5B) or other cytokines (10 ng/ml). The open bars indicate the MFI for BMDC incubated in the absence of the cytokines as negative controls.

DC2.4 cells = test: Influence of HSP90 inhibitors on expression of cell surface HSP90 (FACS with 6H8); assay type: cell-based; conditions: DC2.4, 37° C., 3 hours; OVA 1 mg/ml, radicicol 25 μM, novobiocin 400 μM
Method: DC2.4 cells were incubated in the presence of OVA (in FIG. 4A, i; 1 mg/ml), radicicola (in FIG. 4A, ii; 25 μM) or novobiocin (in FIG. 4A, iii; 400 μM) with 5% CO2 at 37° C. for 3 hours. Next, the cells were cooled on ice. To detect cell surface HSP90, the cells were stained with the 6H8 antibody and then analyzed by FACS.

OT-I CD8+ T cells [3] = test: In vivo cross-presentation assay with free 6H8 antibody administered concurrently; set-up: species or system mouse; conditions: antigen 0.3 μg with free 6H8 antibody 30 μg, 72 hours
Method: (1) CFSE-labeled CD8^+ T cells of an OT-I/CD45.1 mouse were transferred to recipient mice from the tail vein, with 6H8-OVA [or 6H8 (F(ab′)2)—OVA, or OVA, or IgG2a-OVA] (0.3 μg) and the free 6H8 antibody [or 6H8 (F(ab′)2) or IgG2a] (30 μg) administered from the tail vein concurrently. (2) 72 hours later, the spleen was recovered from each mouse, and 2×10^6 splenocytes were stained with the PE-CD45.1 antibody in a 96-well round-bottomed plate for 30 minutes (while cooling on ice). (3) The CFSE intensity of CD45.1-positive cells (OT-I CD8^+ T cells) was determined using FACS Canto (BD).

Compound | influence on expression level of surface HSP90 (DC2.4 cells) | MFI of cell surface HSP90 after cytokine treatment versus negative control [2] | also measured
OVA257-264: major OVA epitope peptide (SIINFEKL) | – | – | cross-presentation potential of FcRγ KO mouse-derived dendritic cells compared with normal mouse-derived dendritic cells (OT-I CD8+ T cells [1]): equivalent
IFNα | – | – | expression of cell surface HSP90 after IFN treatment [2]: increased
C[C@@H]1C[C@H]2O[C@@H]2/C=C\C=C\C(=O)Cc2c(Cl)c(O)cc(O)c2C(=O)O1 [radicicol] | no or almost no influence | – | –
IL-5: cytokine | – | no significant difference from the negative control | –
IFNγ: cytokine | – | – | expression of cell surface HSP90 after IFN treatment [2]: increased
ovalbumin [ovalbumin used as a model antigen] | do not influence | – | enhancing effect by the 6H8 antibody on proliferation reaction of OT-I CD8+ T cells with this antigen (OT-I CD8+ T cells [3]): not noted; cross-presentation potential of FcRγ KO mouse-derived dendritic cells compared with normal mouse-derived dendritic cells (OT-I CD8+ T cells [1]): equivalent
IL-18: cytokine | – | no significant difference from the negative control | –
IL-6: cytokine | – | no significant difference from the negative control | –
CO[C@@H]1[C@@H](OC(N)=O)[C@@H](O)[C@H](Oc2ccc3c(O)c(NC(=O)c4ccc(O)c(CC=C(C)C)c4)c(=O)oc3c2C)OC1(C)C [novobiocin] | no or almost no influence | – | –
IL-15: cytokine | – | no significant difference from the negative control | –
